From PubChem BioAssay AID743117 (The Scripps Research Institute Molecular Screening Center, 2013) come the findings set out here.

Common to all, as to assay: competitive ABPP potency and off-target profiling of APT1/APT2 inhibitors – cell lysate, mouse brain membrane proteome, FP-Rh fluorescence, powders, selectivity assay for LYPLA1/LYPLA2 inhibitor project, late-stage follow-up (AID 743117)
One test concerns LYPLA2. The settings on record: gel-based ABPP FP-Rh fluorescence, at 100 µM (top of the series).
For a further test, the system named is LYPLA1. The settings on record: gel-based ABPP FP-Rh fluorescence, at 100 µM (top of the series).
Test [1] addresses Monoacylglycerol lipase ABHD6 (Mus musculus) (UniProt Q8R2Y0). The settings on record: gel-based ABPP FP-Rh fluorescence, measured here: ABHD6 Selectivity, anti-target concentration >50% inhibition, stronger effect = lower value.
A further test concerns APEH Selectivity. The settings on record: gel-based ABPP FP-Rh fluorescence, measured here: APEH Selectivity, anti-target concentration >50% inhibition, stronger effect = lower value.
For another test, the system named is FAAH Selectivity. The settings on record: gel-based ABPP FP-Rh fluorescence, measured here: FAAH Selectivity, anti-target concentration >50% inhibition, stronger effect = lower value.
The subject of a further test is MAGL Selectivity. The settings on record: gel-based ABPP FP-Rh fluorescence, measured here: MAGL Selectivity, anti-target concentration >50% inhibition, stronger effect = lower value.
A further test concerns ABHD12 Selectivity. The settings on record: gel-based ABPP FP-Rh fluorescence, measured here: ABHD12 Selectivity, anti-target concentration >50% inhibition, stronger effect = lower value.
The next test deals with ABHD4 Selectivity (UniProt Q8VD66). The settings on record: gel-based ABPP FP-Rh fluorescence, measured here: ABHD4 Selectivity, anti-target concentration >50% inhibition, stronger effect = lower value.

Calls of active or inactive are those of the source.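 How the source made its calls: active means 50% or more inhibition of both lipases LYPLA1 and LYPLA2, with off-target enzymes other than ABHD6 below 50%; inactive means below 50% on either lipase, or hitting an off-target enzyme.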

Monoacylglycerol lipase ABHD6 (Mus musculus), sequence (Q8R2Y0 whole entry, looked up): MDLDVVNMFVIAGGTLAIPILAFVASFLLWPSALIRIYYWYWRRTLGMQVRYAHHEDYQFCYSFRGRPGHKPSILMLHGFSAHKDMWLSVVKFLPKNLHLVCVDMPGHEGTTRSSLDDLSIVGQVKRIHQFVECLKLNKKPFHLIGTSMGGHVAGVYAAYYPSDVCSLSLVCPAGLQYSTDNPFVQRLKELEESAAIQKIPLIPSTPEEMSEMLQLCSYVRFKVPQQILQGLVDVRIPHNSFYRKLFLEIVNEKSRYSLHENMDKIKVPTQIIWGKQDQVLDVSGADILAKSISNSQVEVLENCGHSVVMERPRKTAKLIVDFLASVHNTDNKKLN
ABHD4 Selectivity, sequence (Q8VD66 whole entry, looked up): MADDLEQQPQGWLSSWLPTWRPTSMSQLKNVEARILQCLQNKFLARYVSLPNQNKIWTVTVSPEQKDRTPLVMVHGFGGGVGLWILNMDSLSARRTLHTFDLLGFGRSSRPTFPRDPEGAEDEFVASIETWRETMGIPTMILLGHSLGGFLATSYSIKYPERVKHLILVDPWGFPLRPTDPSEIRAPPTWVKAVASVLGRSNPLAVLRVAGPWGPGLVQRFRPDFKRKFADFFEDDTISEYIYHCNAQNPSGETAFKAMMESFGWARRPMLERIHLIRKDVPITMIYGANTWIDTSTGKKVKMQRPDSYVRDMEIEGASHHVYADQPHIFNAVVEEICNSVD

With `CCN(C(=O)C1CCN(C(=O)ON2C(=O)C3CN(C(=O)OC(C)(C)C)CCN3C2=O)CC1)c1ccccc1` (stereo not given), the inhibition in the test on LYPLA2 and in the test on LYPLA1 was 100% (inactive) in each case. This compound also showed a concentration for >50% inhibition in test [1] of 0.1 µM.

Turning to `CC(C)(C)OC(=O)N1CCN2C(=O)N(OC(=O)N3CCCCC3)C(=O)C2C1` (stereo not given), the concentration for >50% inhibition in the test on APEH Selectivity worked out at 100 µM; in test [1], 0.1 µM. Moreover, the inhibition in the test with LYPLA2 and in the test on LYPLA1 was 25% (inactive) throughout.

Take `COc1ccc(C(=O)N2CCN3C(=O)N(OC(=O)N4CCC(CCc5ccc(Cl)cc5)CC4)C(=O)C3C2)cc1` (stereo not given): the concentration for >50% inhibition in the test on FAAH Selectivity was 10 µM; with MAGL Selectivity, 10 µM; in the test on ABHD12 Selectivity it was 10 µM; in test [1], 0.1 µM. Besides, the inhibition with LYPLA2 and in the test with LYPLA1 was 100% in each case.

For the compound `CC(C)(C)OC(=O)N1CCN2C(=O)N(OC(=O)N3CCN(C(c4ccc(Cl)cc4)c4ccc(Cl)cc4)CC3)C(=O)C2C1` (stereo not given), the inhibition in the test with LYPLA2 and in the test with LYPLA1 was 60% (inactive) in each case. Also, in test [1], the concentration for >50% inhibition worked out at 0.1 µM.

In the case of `O=C(ON1C(=O)C2CN(C(=O)c3ccc(Br)cc3)CCN2C1=O)N1CCC(CCc2ccc(Cl)cc2)CC1` (stereo not given), the concentration for >50% inhibition was 10 µM in the test on FAAH Selectivity; 100 µM on ABHD4 Selectivity; 100 µM in the test with MAGL Selectivity; 10 µM in the test on ABHD12 Selectivity; 0.1 µM in test [1]. Further, the inhibition in the test with LYPLA2 and in the test on LYPLA1 was 100% throughout.

For the compound `Cc1ccc(C(=O)N2CCN3C(=O)N(OC(=O)N4CCC(CCc5ccc(Cl)cc5)CC4)C(=O)C3C2)cc1` (stereo not given), the concentration for >50% inhibition was 10 µM in the test with FAAH Selectivity, 100 µM in the test on MAGL Selectivity, 10 µM in the test with ABHD12 Selectivity and 0.1 µM in test [1]. Further, the inhibition in the test on LYPLA2 and in the test with LYPLA1 was 100% throughout.

As for `O=C(ON1C(=O)C2CN(C(=O)N3CCOCC3)CCN2C1=O)N1CCC(CCc2ccc(Cl)cc2)CC1` (stereo not given), the concentration for >50% inhibition in the test on FAAH Selectivity is 10 µM; with MAGL Selectivity it was 100 µM; in the test with ABHD12 Selectivity, 100 µM; in test [1], 0.1 µM. In addition, the inhibition in the test on LYPLA2 and in the test with LYPLA1 was 100% each time.

As to `O=C(Cc1ccccc1)N1CCN2C(=O)N(OC(=O)N3CCC(CCc4ccc(Cl)cc4)CC3)C(=O)C2C1` (stereo not given), the concentration for >50% inhibition in the test on FAAH Selectivity worked out at 1 µM; in the test on MAGL Selectivity it was 10 µM; in test [1] it was 0.1 µM. Also, the inhibition in the test with LYPLA2 and in the test on LYPLA1 was 100% throughout.

In the case of `CN(C)c1ccc(C(=O)N2CCN3C(=O)N(OC(=O)N4CCC(CCc5ccc(Cl)cc5)CC4)C(=O)C3C2)cc1` (stereo not given), the concentration for >50% inhibition came out at 10 µM with FAAH Selectivity, 10 µM in the test with ABHD12 Selectivity and 0.1 µM in test [1]. For the same compound, the inhibition in the test on LYPLA2 and in the test on LYPLA1 was 100% each time.

Consider `CC(C)(C)OC(=O)N1CCN2C(=O)N(OC(=O)N3CCC(CCc4ccc(Cl)cc4)CC3)C(=O)C2C1` (stereo not given), for which the concentration for >50% inhibition in the test with FAAH Selectivity came to 1 µM; with MAGL Selectivity, 100 µM; in the test on ABHD12 Selectivity it was 10 µM; in test [1] it was 0.1 µM. Also, the inhibition in the test on LYPLA2 and with LYPLA1 was 100% in each case.

In the case of `COC(=O)C1CCN(C(=O)ON2C(=O)C3CN(C(=O)OC(C)(C)C)CCN3C2=O)CC1` (stereo not given), the inhibition in the test on LYPLA2 and in the test with LYPLA1 was 25% (inactive) in each case. The concentration for >50% inhibition in test [1] was determined as 0.1 µM.

Regarding `O=C(ON1C(=O)C2CN(C(=O)N3CCCCC3)CCN2C1=O)N1CCC(CCc2ccc(Cl)cc2)CC1` (stereo not given), the concentration for >50% inhibition in the test on FAAH Selectivity is 1 µM; on ABHD4 Selectivity, 10 µM; with MAGL Selectivity, 10 µM; with ABHD12 Selectivity it was 10 µM; in test [1], 0.1 µM. Further, the inhibition with LYPLA2 and in the test on LYPLA1 was 100% in each case.

With `O=C(ON1C(=O)C2CN(C(=O)N3CCCC3)CCN2C1=O)N1CCC(CCc2ccc(Cl)cc2)CC1` (stereo not given), the concentration for >50% inhibition in the test with FAAH Selectivity amounted to 1 µM; on ABHD4 Selectivity, 100 µM; in the test with MAGL Selectivity it was 100 µM; with ABHD12 Selectivity, 100 µM; in test [1] it was 0.1 µM. Moreover, the inhibition with LYPLA2 and in the test with LYPLA1 was 100% in each case.

Take `O=C(ON1C(=O)C2CN(C(=O)c3ccc(F)c([N+](=O)[O-])c3)CCN2C1=O)N1CCC(CCc2ccc(Cl)cc2)CC1` (stereo not given): the concentration for >50% inhibition turned out to be 10 µM in the test on FAAH Selectivity, 100 µM with MAGL Selectivity, 10 µM with ABHD12 Selectivity and 0.1 µM in test [1]. In addition, the inhibition with LYPLA2 and with LYPLA1 was 100% throughout.

As to `CC(C)(C)OC(=O)N1CCN2C(=O)N(OC(=O)N3CCC(C(=O)Nc4ccccc4)CC3)C(=O)C2C1` (stereo not given), the concentration for >50% inhibition with FAAH Selectivity came out at 100 µM; in test [1], 0.1 µM. The inhibition is 25% (inactive) in the test on LYPLA2 and 50% (inactive) in the test on LYPLA1.

`CC(C)(C)OC(=O)N1CCN2C(=O)N(OC(=O)N3CCOCC3Cc3ccccc3)C(=O)C2C1` (stereo not given): the inhibition in the test on LYPLA2 and in the test on LYPLA1 was 0% (inactive) in each case. This compound also had a concentration for >50% inhibition in test [1] of 0.1 µM.

`O=C(ON1C(=O)C2CN(Cc3ccc(Br)cc3)CCN2C1=O)N1CCC(CCc2ccc(Cl)cc2)CC1` (stereo not given): the concentration for >50% inhibition in the test with FAAH Selectivity was 1 µM; at ABHD4 Selectivity, 1 µM; in the test on MAGL Selectivity it was 100 µM; in test [1], 0.1 µM. Besides, the inhibition in the test with LYPLA2 and with LYPLA1 was 90% (inactive) each time.

Regarding `CC(C)(C)OC(=O)N1CCN2C(=O)N(OC(=O)N3CCN(CCc4ccccc4)CC3)C(=O)C2C1` (stereo not given), the concentration for >50% inhibition in the test on FAAH Selectivity was determined as 100 µM; in the test with ABHD12 Selectivity it was 100 µM; in test [1], 0.1 µM. Also, the inhibition is 75% (inactive) with LYPLA2 and 90% (inactive) in the test with LYPLA1.

As to `O=C(ON1C(=O)C2CN(CCc3ccccc3)CCN2C1=O)N1CCC(CCc2ccc(Cl)cc2)CC1` (stereo not given), the concentration for >50% inhibition with FAAH Selectivity came out at 10 µM; on ABHD4 Selectivity, 10 µM; in the test on MAGL Selectivity it was 10 µM; in test [1] it was 0.1 µM. Also, the inhibition in the test with LYPLA2 and with LYPLA1 was 100% (inactive) in each case.

Take `CC(C)(C)CC(=O)N1CCN2C(=O)N(OC(=O)N3CCC(CCc4ccc(Cl)cc4)CC3)C(=O)C2C1` (stereo not given): the concentration for >50% inhibition in the test on FAAH Selectivity was 1 µM; on ABHD4 Selectivity, 100 µM; in the test with MAGL Selectivity, 10 µM; in the test on ABHD12 Selectivity, 10 µM; in test [1], 0.1 µM. The inhibition in the test on LYPLA2 and in the test with LYPLA1 was 100% each time.

What is called inhibition is the drop in the measured response relative to a control, in per cent.
